Measured values from patent US10500166B2, “Methods for the treatment of erectile dysfunction using fispemifene” (QUATRX PHARMACEUTICALS, priority 2007, dated 2019).

Experiments:
[1] = tested on: FSH (follicle stimulating hormone); assay: Example 3 study in hypogonadal men: serum FSH (ITT); format: in vivo, human; details: for FSH % Change from Baseline to Week 2, Max / FSH % Change from Baseline to Week 2, Mean ± SD / FSH % Change from Baseline to Week 2, Median / FSH % Change from Baseline to Week 2, Min / FSH % Change from Baseline to Week 4, Max / FSH % Change from Baseline to Week 4, Mean ± SD / FSH % Change from Baseline to Week 4, Median / FSH % Change from Baseline to Week 4, Min / FSH % Change from Baseline to Week 6, Max / FSH % Change from Baseline to Week 6, Mean ± SD / FSH % Change from Baseline to Week 6, Median / FSH % Change from Baseline to Week 6, Min: (Week minus Baseline) divided by Baseline, LOCF; for FSH % Change from Baseline to Week 2, Max / FSH % Change from Baseline to Week 2, Mean ± SD / FSH % Change from Baseline to Week 2, Median / FSH % Change from Baseline to Week 2, Min / FSH % Change from Baseline to Week 4, Max / FSH % Change from Baseline to Week 4, Mean ± SD / FSH % Change from Baseline to Week 4, Median / FSH % Change from Baseline to Week 4, Min / FSH % Change from Baseline to Week 6, Max / FSH % Change from Baseline to Week 6, Mean ± SD / FSH % Change from Baseline to Week 6, Median / FSH % Change from Baseline to Week 6, Min / FSH Actual Value at Baseline (Visit 2), Max / FSH Actual Value at Baseline (Visit 2), Mean ± SD / FSH Actual Value at Baseline (Visit 2), Median / FSH Actual Value at Baseline (Visit 2), Min: ITT
Procedure: (§1) A randomized, double-blind, placebo controlled, parallel-group study of once-daily doses of fispemifene (100, 200, and 300 mg/day) given for 4 weeks was conducted in a population of hypogonadal men. Subjects were required to meet all of the following inclusion criteria at screening and prior to randomization to be eligible for the study:
(§2) There were 77 subjects total. The number of subjects randomized to the 100 mg fispemifene, 200 mg fispemifene, 300 mg fispemifene, and placebo arms were 21, 21, 19, and 16, respectively.
(§3) Subjects were randomly assigned to one of four treatment groups in a 1:1:1:1 ratio: • Treatment A (100 mg): fispemifene 100 mg+placebo+placebo; • Treatment B (200 mg): fispemifene 100 mg+fispemifene 100 mg+placebo; • Treatment C (300 mg): fispemifene 100 mg+fispemifene 100 mg+fispemifene 100 mg; and • Treatment D (Placebo): placebo+placebo+placebo.
(§4) Subjects took one dose (three capsules) of study medication once a day at home for 4 weeks. Capsules were to be taken in the morning immediately after breakfast, with the exception of the morning of the Week 4 visit. Capsules were not to be taken on the morning of the Week 4 visit because trough plasma levels of fispemifene were determined by a blood sample taken at this visit. Each subject was randomly assigned to treatment with one of the 3 different dose regimens of fispemifene or placebo vehicle. Each subject received a 4 week supply of study drug.
(§5) Blood samples were taken from the subjects within 1 week prior to dosing with study drug to establish baseline values; after 2 and 4 weeks of randomization; and 2 weeks after the last dose of study drug. Serum was prepared from those samples and used to determine the mean % change from baseline in total testosterone, free testosterone, SHBG (sex hormone-binding globulin), DHT (dihydrotestosterone), E2 (estradiol), LH (luteinizing hormone), FSH (follicle stimulating hormone), and inhibin B.
(§6) 3. Percent change from baseline in SHBG, DHT, E2, LH, FSH, inhibin B, and testosterone/E2 ratio at Weeks 2, 4, and 6.

testosterone/E2 ratio = assay: Example 3 study in hypogonadal men: testosterone/E2 ratio (ITT); format: in vivo, human; details: for Testosterone/E2 Ratio % Change from Baseline to Week 2, Max / Testosterone/E2 Ratio % Change from Baseline to Week 2, Mean ± SD / Testosterone/E2 Ratio % Change from Baseline to Week 2, Median / Testosterone/E2 Ratio % Change from Baseline to Week 2, Min: Week 2, (Week minus Baseline) divided by Baseline; for Testosterone/E2 Ratio % Change from Baseline to Week 2, Max / Testosterone/E2 Ratio % Change from Baseline to Week 2, Mean ± SD / Testosterone/E2 Ratio % Change from Baseline to Week 2, Median / Testosterone/E2 Ratio % Change from Baseline to Week 2, Min / Testosterone/E2 Ratio % Change from Baseline to Week 4, Max / Testosterone/E2 Ratio % Change from Baseline to Week 4, Mean ± SD / Testosterone/E2 Ratio % Change from Baseline to Week 4, Median / Testosterone/E2 Ratio % Change from Baseline to Week 4, Min / Testosterone/E2 Ratio % Change from Baseline to Week 6, Max / Testosterone/E2 Ratio % Change from Baseline to Week 6, Mean ± SD / Testosterone/E2 Ratio % Change from Baseline to Week 6, Median / Testosterone/E2 Ratio % Change from Baseline to Week 6, Min: LOCF; for Testosterone/E2 Ratio % Change from Baseline to Week 4, Max / Testosterone/E2 Ratio % Change from Baseline to Week 4, Mean ± SD / Testosterone/E2 Ratio % Change from Baseline to Week 4, Median / Testosterone/E2 Ratio % Change from Baseline to Week 4, Min: Week 4, (Week minus Baseline) divided by Baseline; for Testosterone/E2 Ratio % Change from Baseline to Week 6, Max / Testosterone/E2 Ratio % Change from Baseline to Week 6, Mean ± SD / Testosterone/E2 Ratio % Change from Baseline to Week 6, Median / Testosterone/E2 Ratio % Change from Baseline to Week 6, Min: Week 6, (Week minus Baseline) divided by Baseline
Procedure: as §1, §2, §3, §4, §5, §6

## OCCOCCOc1ccc(/C(=C(/CCCl)c2ccccc2)c2ccccc2)cc1 [Fispemifene, (Z)-2-{2-[4-(4-Chloro-1,2-diphenylbut-1-enyl)phenoxy]ethoxy}ethanol]
[1]; 100 mg
  FSH % Change from Baseline to Week 2, Max: 0.76
  FSH % Change from Baseline to Week 2, Mean ± SD: 0.29 ± 0.222
  FSH % Change from Baseline to Week 2, Median: 0.27
  FSH % Change from Baseline to Week 2, Min: −0.13
  FSH % Change from Baseline to Week 4, Max: 1.12
  FSH % Change from Baseline to Week 4, Mean ± SD: 0.28 ± 0.296
  FSH % Change from Baseline to Week 4, Median: 0.24
  FSH % Change from Baseline to Week 4, Min: −0.09
  FSH % Change from Baseline to Week 6, Max: 0.610
  FSH % Change from Baseline to Week 6, Mean ± SD: 0.043 ± 0.2302
  FSH % Change from Baseline to Week 6, Median: 0.000
  FSH % Change from Baseline to Week 6, Min: −0.345
  FSH Actual Value at Baseline (Visit 2), Max: 14.90 IU/L
  FSH Actual Value at Baseline (Visit 2), Mean ± SD: 649 ± 3.738 IU/L
  FSH Actual Value at Baseline (Visit 2), Median: 5.00 IU/L
[1]; 200 mg
  FSH % Change from Baseline to Week 2, Max: 0.60
  FSH % Change from Baseline to Week 2, Mean ± SD: 0.33 ± 0.147
  FSH % Change from Baseline to Week 2, Median: 0.28
  FSH % Change from Baseline to Week 2, Min: 0.03
  FSH % Change from Baseline to Week 4, Max: 0.58
  FSH % Change from Baseline to Week 4, Mean ± SD: 0.32 ± 0.157
  FSH % Change from Baseline to Week 4, Median: 0.33
  FSH % Change from Baseline to Week 4, Min: 0.02
  FSH % Change from Baseline to Week 6, Max: 0.442
  FSH % Change from Baseline to Week 6, Mean ± SD: 0.050 ± 0.1657
  FSH % Change from Baseline to Week 6, Median: 0.022
  FSH % Change from Baseline to Week 6, Min: −0.167
  FSH Actual Value at Baseline (Visit 2), Max: 14.20 IU/L
  FSH Actual Value at Baseline (Visit 2), Mean ± SD: 5.91 ± 3.054 IU/L
  FSH Actual Value at Baseline (Visit 2), Median: 5.20 IU/L
  FSH Actual Value at Baseline (Visit 2), Min: 2.40 IU/L
[1]; 300 mg
  FSH % Change from Baseline to Week 2, Max: 0.78
  FSH % Change from Baseline to Week 2, Mean ± SD: 0.36 ± 0.233
  FSH % Change from Baseline to Week 2, Median: 0.31
  FSH % Change from Baseline to Week 2, Min: −0.21
  FSH % Change from Baseline to Week 4, Max: 0.60
  FSH % Change from Baseline to Week 4, Mean ± SD: 0.29 ± 0.206
  FSH % Change from Baseline to Week 4, Median: 0.28
  FSH % Change from Baseline to Week 4, Min: −0.24
  FSH % Change from Baseline to Week 6, Max: 0.395
  FSH % Change from Baseline to Week 6, Mean ± SD: −0.010 ± 0.1786
  FSH % Change from Baseline to Week 6, Median: −0.043
  FSH % Change from Baseline to Week 6, Min: −0.255
  FSH Actual Value at Baseline (Visit 2), Max: 12.30 IU/L
  FSH Actual Value at Baseline (Visit 2), Mean ± SD: 5.08 ± 2.931 IU/L
  FSH Actual Value at Baseline (Visit 2), Median: 4.10 IU/L
  FSH Actual Value at Baseline (Visit 2), Min: 1.80 IU/L
[1]; hypogonadal men, 100-300 mg/day for 4 weeks
  effect on serum FSH levels: increased
testosterone/E2 ratio; 100 mg
  Testosterone/E2 Ratio % Change from Baseline to Week 2, Max: 1.21
  Testosterone/E2 Ratio % Change from Baseline to Week 2, Mean ± SD: 0.21 ± 0.457
  Testosterone/E2 Ratio % Change from Baseline to Week 2, Median: 0.18
  Testosterone/E2 Ratio % Change from Baseline to Week 2, Min: −0.39
  Testosterone/E2 Ratio % Change from Baseline to Week 4, Max: 1.57
  Testosterone/E2 Ratio % Change from Baseline to Week 4, Mean ± SD: 0.22 ± 0.482
  Testosterone/E2 Ratio % Change from Baseline to Week 4, Median: 0.13
  Testosterone/E2 Ratio % Change from Baseline to Week 4, Min: −0.29
  Testosterone/E2 Ratio % Change from Baseline to Week 6, Max: 0.411
  Testosterone/E2 Ratio % Change from Baseline to Week 6, Mean ± SD: −0.002 ± 0.1993
  Testosterone/E2 Ratio % Change from Baseline to Week 6, Median: 0.029
  Testosterone/E2 Ratio % Change from Baseline to Week 6, Min: −0.337
  Testosterone/E2 Ratio Actual Value at Baseline (Visit 2), Max: 27.0
  Testosterone/E2 Ratio Actual Value at Baseline (Visit 2), Mean ± SD: 15.2 ± 6.39
  Testosterone/E2 Ratio Actual Value at Baseline (Visit 2), Median: 14.7
  Testosterone/E2 Ratio Actual Value at Baseline (Visit 2), Min: 5.2
testosterone/E2 ratio; 200 mg
  Testosterone/E2 Ratio % Change from Baseline to Week 2, Max: 0.93
  Testosterone/E2 Ratio % Change from Baseline to Week 2, Mean ± SD: 0.25 ± 0.418
  Testosterone/E2 Ratio % Change from Baseline to Week 2, Median: 0.19
  Testosterone/E2 Ratio % Change from Baseline to Week 2, Min: −0.29
  Testosterone/E2 Ratio % Change from Baseline to Week 4, Max: 1.08
  Testosterone/E2 Ratio % Change from Baseline to Week 4, Mean ± SD: 0.18 ± 0.387
  Testosterone/E2 Ratio % Change from Baseline to Week 4, Median: 0.17
  Testosterone/E2 Ratio % Change from Baseline to Week 4, Min: −0.34
  Testosterone/E2 Ratio % Change from Baseline to Week 6, Max: 0.937
  Testosterone/E2 Ratio % Change from Baseline to Week 6, Mean ± SD: 0.019 ± 0.3760
  Testosterone/E2 Ratio % Change from Baseline to Week 6, Median: −0.030
  Testosterone/E2 Ratio % Change from Baseline to Week 6, Min: −0.517
  Testosterone/E2 Ratio Actual Value at Baseline (Visit 2), Max: 30.2
  Testosterone/E2 Ratio Actual Value at Baseline (Visit 2), Mean ± SD: 14.2 ± 5.73
  Testosterone/E2 Ratio Actual Value at Baseline (Visit 2), Median: 14.9
  Testosterone/E2 Ratio Actual Value at Baseline (Visit 2), Min: 6.3
testosterone/E2 ratio; 300 mg
  Testosterone/E2 Ratio % Change from Baseline to Week 2, Max: 1.43
  Testosterone/E2 Ratio % Change from Baseline to Week 2, Mean ± SD: 0.21 ± 0.372
  Testosterone/E2 Ratio % Change from Baseline to Week 2, Median: 0.15
  Testosterone/E2 Ratio % Change from Baseline to Week 2, Min: −0.24
  Testosterone/E2 Ratio % Change from Baseline to Week 4, Max: 1.12
  Testosterone/E2 Ratio % Change from Baseline to Week 4, Mean ± SD: 0.33 ± 0.428
  Testosterone/E2 Ratio % Change from Baseline to Week 4, Median: 0.36
  Testosterone/E2 Ratio % Change from Baseline to Week 4, Min: −0.53
  Testosterone/E2 Ratio % Change from Baseline to Week 6, Max: 0.65
  Testosterone/E2 Ratio % Change from Baseline to Week 6, Mean ± SD: 0.12 ± 0.250
  Testosterone/E2 Ratio % Change from Baseline to Week 6, Median: 0.11
  Testosterone/E2 Ratio % Change from Baseline to Week 6, Min: −0.29
  Testosterone/E2 Ratio Actual Value at Baseline (Visit 2), Max: 23.1
  Testosterone/E2 Ratio Actual Value at Baseline (Visit 2), Mean ± SD: 11.5 ± 4.87
  Testosterone/E2 Ratio Actual Value at Baseline (Visit 2), Median: 10.6
  Testosterone/E2 Ratio Actual Value at Baseline (Visit 2), Min: 1.7
